Experimental data: patent US20240053345A1, “POLYPEPTIDES BINDING SELECTIVELY HEPARIN OR HEPARAN SULFATE GLYCOSAMINOGLYCANS AND CELL-PENETRATING POLYPEPTIDES COMPRISING THE SAME” (SORBONNE UNIVERSITE, priority 2020, published 2024)
Where a SMILES comes first, the peptide text is derived from it. The star is where a group is joined. Biotin = O=C1N[C@H]2[C@H](CS[C@H]2CCCCC(=O)*)N1

Tests used:
[1] = tested on: CHO-745, CHO-K1, CaOV-3 and SKOV-3 cells; assay: Quantification of internalization of peptides in four cell lines; type: cell-based; settings: CHO-K1 or the two ovarian cancer cells (CaOV-3, SKOV-3) vs CHO-745; 1 h incubation at 37° C.
Protocol: (§1) FIG. 2: Quantification of the internalization of peptides, studied in GAGs-deficient cells CHO-745 (white bar), wild type cells CHO-K1 (light grey bar) and two ovarian adenocarcinoma cells CaOV-3 (dark grey bar) and SKOV-3 (black bar) after 1 h incubation at 37° C. Experiments were done in duplicate or triplicate and repeated at least three times independently. Significance was tested using a student's t-test (NS:p>0.05, *0.05>p>0.01, **0.01>p>0.001, ***0.001>p).
(§2) Peptides listed in Table 1 were incubated separately in the following four ovarian cell types which have different GAGs types and expression levels: wild type CHO-K1 (expressing heparan sulfate (HS), chondroitin sulfate A (CSA) and C (CSC)), CHO-pgs A475 (CHO-745) (genetically modified to express only 5-10% HS and CS), two human ovarian adenocarcinoma cells CaOV-3 (overexpressing HS and CSE) and SKOV-3 (overexpressing CSE). Peptides were incubated with one million cells at 37° C. for 1 h.
(§3) Wild type Chinese Hamster Ovary (CHO-K1) cells and GAGs-deficient mutant CHO-745 cells which lack the xylosyltransferase needed for glycosaminoglycan (GAG) synthesis were grown in Dulbecco's modified Eagle's medium F-12 (DMEMF-12) with L-glutamine and 15 mM HEPES. HEK cells and HeLa cells were grown in DMEM with 4.5 g/L D-glucose and pyruvate. Two types of human ovarian cancer cell lines CaOV-3 and SKOV-3 were cultured in DMEM with Glutamax and McCoy's 5A medium, respectively. All complete culture medium was supplemented with 10% fetal bovine serum, penicillin (100,000 IU/L), streptomycin (100 mg/L). Cells were grown in a humidified atmosphere at 37° C. and 5% CO2.

[2] = tested on: CHO-745 cells; assay: Internalization of peptides in GAGs-deficient cells with exogenous GAGs, quantified by MS; type: cell-based, Chinese Hamster; settings: for cellular quantity of internalized peptide: 7.5 μM peptide
Protocol: (§4) FIG. 3: Quantification of internalization of chimeric peptides P1, P3 and P5 in cells CHO-745 (a,b) and in CaOV-3 cells (c,d). Peptides were incubated with cells for 1 h along with heparin (a) or chondroitin sulfate-E (b). P1 was also incubated with CaOV-3 for 1 h along with heparin (c) and P3 incubated with CaOV-3 in the presence of CS-E (d) at different concentrations. Experiments were done in duplicate or triplicate and repeated at least three times independently.
FIG. 5: The effect of heparin favoring P1 internalization can be reversed by addition of heparinase in […].
as §3
(§5) Tested Peptides were incubated separately in the following two ovarian cell types: CHO-745 and CaOV-3. The inventors incubated (7.5 μM) peptides with cells lines for 1 h along with exogenous heparin (HI) or chondroitin-4,6-sulfate (CSE) and quantified the internalized peptides by MS.
P1 was incubated in the CHO-745 ovarian cell type with different concentrations of heparinase. Cells culture are similar to the example 1.

[3] = tested on: CaOV-3 cells; assay: Internalization of peptides in CaOV-3 cells; type: cell-based, human; settings: for internalization efficacy in CaOV-3 compared to CHO-K1 / intracellular concentration of internalized peptide: 1 h at 37° C.; for intracellular concentration of internalized peptide: 1 pmol in 1 million cells taken as 1 μM (1 pL/cell)
Protocol: as §1, §4, §2, §3, §5

[4] = tested on: SKOV-3 cells; assay: Internalization of peptides in SKOV-3 cells, also after sodium chlorate or GAG-specific enzyme pre-treatment; type: cell-based, human; settings: for internalization after chondroitinase ABC (ChABC) treatment: enzyme pre-treatment 2 h; for internalization after heparinases cocktail treatment: heparinases I, II and III pre-treatment 2 h; for cellular uptake in SKOV-3 compared to CHO-K1: 1 h at 37° C.
Protocol: as §1
FIG. 4: Quantification of P3 after SKOV-3 pre-treatment with sodium chlorate for 24 h or GAG-specific enzymes for 2 h (a) and P1 after SKOV-3 pre-treatment with GAG-specific enzymes for 2 h (b). Experiments were done in duplicate or triplicate and repeated at least three times independently. Significance was tested using a student's t-test (NS:p>0.05, *0.05>p>0.01, **0.01>p>0.001, ***0.001>p).
as §2, §3
Tested Peptides were incubated separately in the following ovarian cell type: SKOV-3. A pre-treatment with sodium chlorate for 24 h or GAG-specific enzymes for 2 h.
The inventors used different concentrations of chlorate to treat SKOV-3 and analyzed the internalization of P3. […] The inventors also checked that there is no cytotoxicity generated by 100 mM concentration of NaClO3. […] Not merely impairment of sulfation leads to significant P3 internalization decline, enzymatic GAGs degradation might also impact on peptide internalization. They used two specific enzymes: one is the blend of heparinases I, II and III that are extracted from Flavobacterium heparinum and hydrolyze the glycosidic bonds of glucosamine and uronic acids; the other one is chondroitinase ABC (ChABC) lyase purified from Proteus Vulgaris that specifically catalyzes the degradation of chondroitin 4-sulfate, chondroitin 6-sulfate containing (1-4)-β-D-hexosaminyl and (1-3)-β-D-glucuronosyl or (1-3)-α-L-iduronosyl linkages to disaccharides containing 4-deoxy-β-D-gluc-4-enuronosyl groups.

[5] = tested on: blood cells; assay: Hemolysis; type: cell-based; settings: even at 50 μM for 2 h
Protocol: (§6) The inventors tested cytotoxicity and hemolysis activity of the peptides incubated with CHO-K1 cells at different concentrations.

[6] = Binding to chondroitin sulfate-E
[7] = tested on: CHO-K1 cells
Protocol: as §6

[8] = co-incubation with 7.2 μg/ml HI, 1 h
[9] = co-incubation with 7.2 μg/ml CSE, 1 h

Row | Molecule | internalization compared with CHO-745 cells [1] | cellular quantity of internalized peptide [2, 8] | effect of CSE addition on internalization ([2]; exogenous CSE, 1 h) | effect of degradation fragments of HI on internalization ([2]; heparin degraded by heparinase) | effect of intact HI on internalization ([2]; intact heparin) | internalization efficacy in CaOV-3 compared to CHO-K1 [3] | intracellular concentration of internalized peptide ([3]; CaOV-3) [µM] | effect of HI on relative internalization ([3]; CaOV-3, exogenous heparin, 1 h) | internalization after chondroitinase ABC (ChABC) treatment ([4]; SKOV-3) | internalization after heparinases cocktail treatment ([4]; SKOV-3) | hemolysis of blood cells [5] | binding to CSE [6] | cytotoxicity [7] | cellular quantity of internalized peptide [2, 9] | effect of CSE addition on internalization ([3]; CaOV-3, CSE 7.2 μg/ml, 1 h) | effect of CSE addition on internalization ([3]; CaOV-3, CSE concentrations below 3.6 μg/ml, 1 h) | cellular uptake in SKOV-3 compared to CHO-K1 [4] | internalization efficacy after sodium chlorate pre-treatment ([4]; SKOV-3, sodium chlorate 24 h, concentration-dependent)
1 | CC[C@H](C)[C@H](NC(=O)[C@H](CCCCN)NC(=O)[C@H](C)NC(=O)[C@H](CCCNC(=N)N)NC(=O)[C@H](CCCCN)NC(=O)[C@H](CC(N)=O)NC(=O)[C@H](CCC(N)=O)NC(=O)[C@H](Cc1ccccc1)NC(=O)[C@H](Cc1c[nH]c2ccccc12)NC(=O)[C@@H](NC(=O)[C@H](CCCCN)NC(=O)[C@@H](NC(=O)[C@H](CCC(N)=O)NC(=O)[C@H](CO)NC(=O)[C@H](CCCNC(=N)N)NC(=O)[C@@H]1CCCN1C(=O)[C@H](CCCNC(=N)N)NC(=O)[C@H](CCCCN)NC(=O)[C@H](CC(=O)O)NC(=O)[C@H](CCC(=O)O)NC(=O)[C@H](CCCCN)NC(=O)[C@H](CC(N)=O)NC(=O)[C@@H]1CCCN1C(=O)[C@H](CC(N)=O)NC(=O)[C@H](CCCCN)NC(=O)[C@H](CCCCN)NC(=O)[C@H](CCCCN)NC(=O)[C@@H]1CCCN1C(=O)[C@H](CCCCN)NC(=O)[C@H](CCCNC(=N)N)NC(=O)[C@H](CO)NC(=O)[C@H](CCCNC(=N)N)NC(=O)CNC(=O)CNC(=O)CNC(=O)CNC(=O)CNC(=O)CCCC[C@@H]1SC[C@@H]2NC(=O)N[C@@H]21)[C@@H](C)CC)[C@@H](C)CC)C(=O)N[C@@H](CCCCN)C(=O)N[C@@H](CCCCN)C(N)=O [P1, Biotin-G5-RSRKPKKKNPNKEDKRPR SQIKIWFQNKRAKIKK-NH2] (Biotin-GGGGGRSRKPKKKNPNKEDKRPRSQIKIWFQNKRAKIKK-NH2) | entered significantly more | around 21 pmol | made no effect | lost the ability | promoted P1 internalization | increased their internalization efficacy | 7 | favorable effect | decrease | decrease | no hemolysis | high binding affinity | not Cytotoxic |  |  |  |  | 
2 | CC[C@H](C)[C@H](NC(=O)[C@H](CCCCN)NC(=O)[C@H](C)NC(=O)[C@H](CCCNC(=N)N)NC(=O)[C@H](CCCCN)NC(=O)[C@H](CC(N)=O)NC(=O)[C@H](CCC(N)=O)NC(=O)[C@H](Cc1ccccc1)NC(=O)[C@H](Cc1c[nH]c2ccccc12)NC(=O)[C@@H](NC(=O)[C@H](CCCCN)NC(=O)[C@@H](NC(=O)[C@H](CCC(N)=O)NC(=O)[C@H](CO)NC(=O)[C@H](CC(C)C)NC(=O)[C@H](CCC(N)=O)NC(=O)[C@H](C)NC(=O)[C@H](CCCNC(=N)N)NC(=O)[C@@H](NC(=O)[C@H](Cc1ccccc1)NC(=O)[C@@H](NC(=O)[C@@H](NC(=O)[C@H](CCCNC(=N)N)NC(=O)[C@H](CCC(=O)O)NC(=O)[C@H](CCCNC(=N)N)NC(=O)[C@H](CCCNC(=N)N)NC(=O)[C@H](CCC(N)=O)NC(=O)[C@H](CCCCN)NC(=O)[C@H](CCCNC(=N)N)NC(=O)CNC(=O)CNC(=O)CNC(=O)CNC(=O)CNC(=O)CCCC[C@@H]1SC[C@@H]2NC(=O)N[C@@H]21)[C@@H](C)O)[C@@H](C)O)[C@@H](C)O)[C@@H](C)CC)[C@@H](C)CC)C(=O)N[C@@H](CCCCN)C(=O)N[C@@H](CCCCN)C(N)=O [P3, Biotin-G5-RKQRRERTTFTRAQL SQIKIWFQNKRAKIKK-NH2] (Biotin-GGGGGRKQRRERTTFTRAQLSQIKIWFQNKRAKIKK-NH2) | entered significantly more | ~28 pmol |  |  |  | increased their internalization efficacy | 24 |  | significantly curtailed internalization | almost no difference | no hemolysis |  | not Cytotoxic | around 6.5 pmol | evokes P3 internalization | inhibited P3 internalization | apparently increased their cellular uptake | dramatically reduced
3 | Biotin-GGGG-KEDKRPRTAFTAEQL SQIKIWFQNKRAKIKK-NH2 [P5] | entered significantly more | ~22 pmol |  |  |  | increased their internalization efficacy | 7 |  |  |  |  |  |  | 2.2 pmol |  |  | apparently increased their cellular uptake | 
4 | SQIKIWFQNKRAKIKK [En2H3, Ac-SQIKIWFQNKRAKIKK-NH2] | entered significantly more |  |  |  |  | increased their internalization efficacy | 7 |  |  |  |  |  |  |  |  |  |  | 
